What follows are compounds tested against human Cav2.2 (Homo sapiens, UniProt Q00975) (assay: Assessment of calcium channel activity using FLIPR (Ca2+ influx in IMR32 cells)). Conditions: 3 minute pre-incubation with compound (*), 2 μM nifedipine, depolarized with 80 mM KCl.
human Cav2.2, sequence (Q00975 whole entry): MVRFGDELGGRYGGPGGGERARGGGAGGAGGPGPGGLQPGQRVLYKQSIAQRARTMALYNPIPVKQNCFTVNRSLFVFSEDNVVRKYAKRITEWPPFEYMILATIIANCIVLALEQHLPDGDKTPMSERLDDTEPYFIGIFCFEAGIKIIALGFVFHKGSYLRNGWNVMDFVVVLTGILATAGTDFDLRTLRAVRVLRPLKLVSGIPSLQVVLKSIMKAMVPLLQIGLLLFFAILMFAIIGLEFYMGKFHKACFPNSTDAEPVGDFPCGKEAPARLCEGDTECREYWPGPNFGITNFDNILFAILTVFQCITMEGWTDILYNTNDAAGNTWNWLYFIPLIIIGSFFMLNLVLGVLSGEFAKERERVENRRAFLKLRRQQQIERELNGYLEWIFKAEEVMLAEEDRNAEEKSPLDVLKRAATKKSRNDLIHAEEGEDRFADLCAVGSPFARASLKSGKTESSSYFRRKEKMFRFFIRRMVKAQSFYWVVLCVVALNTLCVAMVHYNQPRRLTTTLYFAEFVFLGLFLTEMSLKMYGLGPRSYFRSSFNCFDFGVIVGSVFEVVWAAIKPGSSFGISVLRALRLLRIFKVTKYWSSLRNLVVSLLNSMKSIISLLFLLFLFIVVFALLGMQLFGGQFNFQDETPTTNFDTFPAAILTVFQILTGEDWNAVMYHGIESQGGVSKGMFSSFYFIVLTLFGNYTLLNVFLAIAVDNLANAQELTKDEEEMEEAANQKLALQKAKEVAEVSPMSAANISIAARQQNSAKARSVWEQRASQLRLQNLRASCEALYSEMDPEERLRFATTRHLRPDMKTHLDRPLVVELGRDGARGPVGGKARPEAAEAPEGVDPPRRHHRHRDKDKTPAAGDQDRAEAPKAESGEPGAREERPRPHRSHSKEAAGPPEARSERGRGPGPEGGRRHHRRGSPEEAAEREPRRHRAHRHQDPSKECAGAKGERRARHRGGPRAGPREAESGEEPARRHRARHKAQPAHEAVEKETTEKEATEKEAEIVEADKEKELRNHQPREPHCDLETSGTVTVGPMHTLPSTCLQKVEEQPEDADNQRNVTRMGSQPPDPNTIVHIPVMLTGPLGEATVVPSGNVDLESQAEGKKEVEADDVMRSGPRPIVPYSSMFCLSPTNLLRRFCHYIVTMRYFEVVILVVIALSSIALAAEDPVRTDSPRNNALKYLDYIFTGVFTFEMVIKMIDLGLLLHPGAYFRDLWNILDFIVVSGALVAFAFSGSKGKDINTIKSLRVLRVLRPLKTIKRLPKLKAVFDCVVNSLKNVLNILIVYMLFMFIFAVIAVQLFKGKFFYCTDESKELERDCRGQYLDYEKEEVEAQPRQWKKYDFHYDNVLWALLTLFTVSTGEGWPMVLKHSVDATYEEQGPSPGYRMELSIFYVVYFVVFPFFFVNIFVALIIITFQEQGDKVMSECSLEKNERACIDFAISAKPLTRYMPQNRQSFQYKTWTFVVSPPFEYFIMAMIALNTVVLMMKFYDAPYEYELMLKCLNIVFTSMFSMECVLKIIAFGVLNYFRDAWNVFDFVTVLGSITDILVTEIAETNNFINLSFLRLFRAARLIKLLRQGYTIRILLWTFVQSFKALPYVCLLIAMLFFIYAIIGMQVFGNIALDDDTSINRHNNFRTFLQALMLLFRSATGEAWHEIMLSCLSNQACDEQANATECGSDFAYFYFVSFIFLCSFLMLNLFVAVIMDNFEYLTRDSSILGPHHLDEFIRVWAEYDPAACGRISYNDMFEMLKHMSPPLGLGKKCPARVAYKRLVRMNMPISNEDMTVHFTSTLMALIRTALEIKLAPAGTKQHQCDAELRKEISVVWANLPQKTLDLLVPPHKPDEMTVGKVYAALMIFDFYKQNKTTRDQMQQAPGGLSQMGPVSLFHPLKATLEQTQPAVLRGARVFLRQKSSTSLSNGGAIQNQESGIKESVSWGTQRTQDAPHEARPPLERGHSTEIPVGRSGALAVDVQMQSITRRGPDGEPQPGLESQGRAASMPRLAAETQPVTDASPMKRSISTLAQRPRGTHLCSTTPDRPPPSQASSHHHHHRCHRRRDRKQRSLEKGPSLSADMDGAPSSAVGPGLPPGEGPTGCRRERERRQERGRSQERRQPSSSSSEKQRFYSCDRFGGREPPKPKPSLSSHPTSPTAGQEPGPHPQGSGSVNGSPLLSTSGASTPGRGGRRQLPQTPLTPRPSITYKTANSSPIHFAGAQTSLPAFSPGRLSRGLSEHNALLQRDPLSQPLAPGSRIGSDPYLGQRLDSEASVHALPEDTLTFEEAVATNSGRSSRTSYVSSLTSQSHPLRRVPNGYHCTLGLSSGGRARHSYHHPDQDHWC
human Cav2.2, sequence (P54289 25-946 partner limits assumed): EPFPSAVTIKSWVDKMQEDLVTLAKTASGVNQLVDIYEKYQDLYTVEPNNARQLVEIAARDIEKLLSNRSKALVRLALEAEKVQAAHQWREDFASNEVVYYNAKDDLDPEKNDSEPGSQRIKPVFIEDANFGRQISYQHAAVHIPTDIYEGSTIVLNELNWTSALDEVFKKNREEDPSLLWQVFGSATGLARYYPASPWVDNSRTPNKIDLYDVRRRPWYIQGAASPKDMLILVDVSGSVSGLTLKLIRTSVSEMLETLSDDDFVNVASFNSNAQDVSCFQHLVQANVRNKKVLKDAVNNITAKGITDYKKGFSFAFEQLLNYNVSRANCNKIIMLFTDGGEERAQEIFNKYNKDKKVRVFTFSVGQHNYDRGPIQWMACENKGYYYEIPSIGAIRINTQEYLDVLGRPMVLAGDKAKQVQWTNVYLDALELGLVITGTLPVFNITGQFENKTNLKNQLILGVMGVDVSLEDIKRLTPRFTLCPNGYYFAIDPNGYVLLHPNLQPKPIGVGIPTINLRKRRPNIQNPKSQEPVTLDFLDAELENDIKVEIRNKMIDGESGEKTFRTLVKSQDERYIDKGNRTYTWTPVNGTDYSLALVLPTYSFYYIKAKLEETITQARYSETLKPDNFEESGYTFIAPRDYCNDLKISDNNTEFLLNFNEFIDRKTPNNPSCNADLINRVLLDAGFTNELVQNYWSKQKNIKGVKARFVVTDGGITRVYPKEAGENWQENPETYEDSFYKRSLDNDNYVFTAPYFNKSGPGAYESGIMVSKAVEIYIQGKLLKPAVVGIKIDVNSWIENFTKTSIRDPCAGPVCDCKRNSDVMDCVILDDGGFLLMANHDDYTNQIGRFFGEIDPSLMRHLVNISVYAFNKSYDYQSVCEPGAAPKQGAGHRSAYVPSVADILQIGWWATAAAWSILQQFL
human Cav2.2, sequence (P54289 947-1103 partner limits assumed): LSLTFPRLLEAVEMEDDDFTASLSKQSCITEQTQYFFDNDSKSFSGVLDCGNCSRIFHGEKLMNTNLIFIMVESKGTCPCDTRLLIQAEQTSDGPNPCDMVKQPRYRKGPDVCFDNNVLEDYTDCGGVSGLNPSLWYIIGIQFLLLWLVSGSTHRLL
human Cav2.2, sequence (P54284 whole entry partner): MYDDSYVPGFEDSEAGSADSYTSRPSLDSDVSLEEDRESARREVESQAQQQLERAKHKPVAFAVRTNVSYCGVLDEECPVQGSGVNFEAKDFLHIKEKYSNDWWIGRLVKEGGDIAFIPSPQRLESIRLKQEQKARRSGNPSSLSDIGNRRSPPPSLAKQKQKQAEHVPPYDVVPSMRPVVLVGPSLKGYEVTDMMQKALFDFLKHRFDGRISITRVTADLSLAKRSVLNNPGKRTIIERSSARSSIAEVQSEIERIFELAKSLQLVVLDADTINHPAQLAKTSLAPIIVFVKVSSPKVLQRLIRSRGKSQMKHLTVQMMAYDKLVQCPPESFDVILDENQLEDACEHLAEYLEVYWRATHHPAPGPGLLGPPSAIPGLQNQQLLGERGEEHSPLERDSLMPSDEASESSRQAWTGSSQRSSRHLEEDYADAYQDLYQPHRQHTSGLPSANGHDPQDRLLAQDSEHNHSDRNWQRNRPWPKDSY
Format: cell-based
Method in brief: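 IMR32 neuroblastoma cells seeded at 1-1.2×10^5 cells/well and grown 48 h at 37 °C before FLIPR Ca2+ influx read. Percent inhibition at each concentration vs no-inhibitor activity; IC50 by non-linear sigmoidal dose-response fit.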
In the case of “N-[(3aS*,4R*,6aR*)-2-benzyloctahydrocyclopenta[c]pyrrol-4-yl]-2-cyclohexyl-2-phenylacetamide [Example 4]”, the IC50 is reported as 3.5 µM.

Same assay, conditions: 60 minute pre-incubation with compound, 2 μM nifedipine, depolarized with 80 mM KCl
In the case of O=C(N[C@H]1CC[C@H]2CN(Cc3cccc(C(F)(F)F)c3)C[C@H]21)C(C1CCCCC1)C1CCCCC1 [Example 54, 2,2-dicyclohexyl-N-{(3aS,4S,6aR)-2-[3-(trifluoromethyl)benzyl]octahydrocyclopenta[c]pyrrol-4-yl}acetamide], the IC50 is reported as 0.5 µM. CCC[C@@H](C(=O)N[C@H]1CC[C@@H]2CN(S(=O)(=O)c3cccnc3)C[C@@H]21)N(C)C(=O)OC(C)(C)C [Example 530, Tert-butyl methyl((S)-1-oxo-1-((3aR,4S,6aS)-2-(pyridin-3-ylsulfonyl)octahydrocyclopenta[c]pyrrol-4-ylamino)pentan-2-yl)carbamate] was tested, and the IC50 was 7.63 µM. For CCC[C@H](NC)C(=O)N[C@H]1CC[C@@H]2CN(S(=O)(=O)c3ccc(F)c(Cl)c3)C[C@@H]21 [Example 534, N^1-{(3aR,4S,6aS)-2-[(3-chloro-4-fluorophenyl)sulfonyl]octahydrocyclopenta[c]pyrrol-4-yl}-N^2-methyl-L-norvalinamide], the IC50 was 6.38 µM. CCC[C@H](NC)C(=O)N[C@H]1CC[C@@H]2CN(S(=O)(=O)c3ccc(F)cc3Cl)C[C@@H]21 [Example 539, N^1-{(3aR,4S,6aS)-2-[(2-chloro-4-fluorophenyl)sulfonyl]octahydrocyclopenta[c]pyrrol-4-yl}-N^2-methyl-L-norvalinamide] showed an IC50 of 4.39 µM. In the case of CCC[C@H](NC)C(=O)N[C@H]1CC[C@@H]2CN(S(=O)(=O)c3cccc4ccccc34)C[C@@H]21 [Example 540, N^2-methyl-N^1-[(3aR,4S,6aS)-2-(1-naphthylsulfonyl)octahydrocyclopenta[c]pyrrol-4-yl]-L-norvalinamide], the IC50 is reported as 1.67 µM. CCC[C@H](NC)C(=O)N[C@H]1CC[C@@H]2CN(S(=O)(=O)c3ccc(Br)c(C(F)(F)F)c3)C[C@@H]21 [Example 541, N^1-((3aR,4S,6aS)-2-{[4-bromo-3-(trifluoromethyl)phenyl]sulfonyl}octahydrocyclopenta[c]pyrrol-4-yl)-N^2-methyl-L-norvalinamide] was tested, and the IC50 was 2.57 µM. CCC[C@H](NC)C(=O)N[C@H]1CC[C@@H]2CN(S(=O)(=O)c3ccc(Cl)c(Cl)c3)C[C@@H]21 [Example 542, N^1-{(3aR,4S,6aS)-2-[(3,4-dichlorophenyl)sulfonyl]octahydrocyclopenta[c]pyrrol-4-yl}-N^2-methyl-L-norvalinamide] gave an IC50 of 2.36 µM. CCC[C@H](NC)C(=O)N[C@H]1CC[C@@H]2CN(S(=O)(=O)c3ccc(-c4ccccc4)cc3)C[C@@H]21 [Example 544, N^1-[(3aR,4S,6aS)-2-(1,1′-biphenyl-4-ylsulfonyl)octahydrocyclopenta[c]pyrrol-4-yl]-N^2-methyl-L-norvalinamide] was tested, and the IC50 was 2.15 µM. CCC[C@H](NC)C(=O)N[C@H]1CC[C@@H]2CN(S(=O)(=O)c3cccc(C#N)c3)C[C@@H]21 [Example 546, N^1-{(3aR,4S,6aS)-2-[(3-cyanophenyl)sulfonyl]octahydrocyclopenta[c]pyrrol-4-yl}-N^2-methyl-L-norvalinamide] showed an IC50 of 6.32 µM. CCC[C@H](NC)C(=O)N[C@H]1CC[C@@H]2CN(S(=O)(=O)c3cccc(Cl)c3Cl)C[C@@H]21 [Example 548, N^1-{(3aR,4S,6aS)-2-[(2,3-dichlorophenyl)sulfonyl]octahydrocyclopenta[c]pyrrol-4-yl}-N^2-methyl-L-norvalinamide] was tested, and the IC50 was 1.05 µM. Work on CCC[C@H](NC)C(=O)N[C@H]1CC[C@@H]2CN(S(=O)(=O)c3ccccc3C(F)(F)F)C[C@@H]21 [Example 550, N^2-methyl-N^1-((3aR,4S,6aS)-2-{[2-(trifluoromethyl)phenyl]sulfonyl}octahydrocyclopenta[c]pyrrol-4-yl)-L-norvalinamide] yielded an IC50 of 2.57 µM. Compound CCC[C@H](NC)C(=O)N[C@H]1CC[C@@H]2CN(S(=O)(=O)c3cccc(Br)c3)C[C@@H]21 [Example 551, N^1-{(3aR,4S,6aS)-2-[(3-bromophenyl)sulfonyl]octahydrocyclopenta[c]pyrrol-4-yl}-N^2-methyl-L-norvalinamide] has an IC50 of 2.49 µM. CCC[C@H](NC)C(=O)N[C@H]1CC[C@@H]2CN(S(=O)(=O)c3ccc(C(F)(F)F)cc3Cl)C[C@@H]21 [Example 552, N^1-((3aR,4S,6aS)-2-{[2-chloro-4-(trifluoromethyl)phenyl]sulfonyl}octahydrocyclopenta[c]pyrrol-4-yl)-N^2-methyl-L-norvalinamide] gave an IC50 of 0.78 µM. CCC[C@H](NC)C(=O)N[C@H]1CC[C@@H]2CN(S(=O)(=O)c3cc(C(F)(F)F)ccc3Cl)C[C@@H]21 [Example 553, N^1-((3aR,4S,6aS)-2-{[2-chloro-5-(trifluoromethyl)phenyl]sulfonyl}octahydrocyclopenta[c]pyrrol-4-yl)-N^2-methyl-L-norvalinamide] gave an IC50 of 1.94 µM. In the case of CC(C)N([C@H]1CC[C@@H]2CN(Cc3ccccc3)C[C@@H]21)S(=O)(=O)c1cccc(C(F)(F)F)c1 [Example 555, N-[(3aR,4S,6aS)-2-benzyloctahydrocyclopenta[c]pyrrol-4-yl]-N-isopropyl-3-(trifluoromethyl)benzenesulfonamide], the IC50 is reported as 2.51 µM. For O=S(=O)(N[C@H]1CC[C@@H]2CN(Cc3ccccc3)C[C@@H]21)c1cccc(C(F)(F)F)c1 [Example 556, N-[(3aR,4S,6aS)-2-benzyloctahydrocyclopenta[c]pyrrol-4-yl]-3-(trifluoromethyl)benzenesulfonamide], the IC50 was 2.58 µM. In the case of CN[C@@H](CC(C)C)C(=O)N1C[C@H]2CC[C@H](N(C(C)C)S(=O)(=O)c3cccc(C(F)(F)F)c3)[C@H]2C1 [Example 557, N-isopropyl-N-[(3aR,4S,6aS)-2-(N-methyl-L-leucyl)octahydrocyclopenta[c]pyrrol-4-yl]-3-(trifluoromethyl)benzenesulfonamide], the IC50 is reported as 1.14 µM. Compound CN[C@@H](CC(C)C)C(=O)N1C[C@H]2CC[C@H](NS(=O)(=O)c3cccc(C(F)(F)F)c3)[C@H]2C1 [Example 558, N-[(3aR,4S,6aS)-2-(N-methyl-L-leucyl)octahydrocyclopenta[c]pyrrol-4-yl]-3-(trifluoromethyl)benzenesulfonamide] has an IC50 of 4.88 µM. Compound CNC(CC(C)C)C(=O)N1CC2CCC(N(C3CC3)S(=O)(=O)c3cccc(C(F)(F)F)c3)C2C1 [Example 559, N-cyclopropyl-N-[(3aS*,4S*,6aR*)-[2-(N-methyl-L-leucyl)octahydrocyclopenta[c]pyrrol-4-yl]-3-(trifluoromethyl)benzenesulfonamide] has an IC50 of 1.68 µM. With “N-((3aR,4S,6aS)-2-{[2-chloro-4-(trifluoromethyl)phenyl]sulfonyl}octahydrocyclopenta[c]pyrrol-4-yl)-N-methyl-L-phenylalaninamide [Example 432]” the IC50 was 1.67 µM. In the case of “N-methyl-N-((3aR,4S,6aS)-2-{[4-(trifluoromethyl)phenyl]sulfonyl}octahydrocyclopenta[c]pyrrol-4-yl)-L-phenylalaninamide [Example 430]”, the IC50 is reported as 1.75 µM.

The compounds below were run on Sprague Dawley rats (assay: Capsaicin induced secondary mechanical hyperalgesia model). Conditions: po, 1 h, read-out: % inhibition @ 30 mg/kg p.o., 60 minutes before testing, secondary mechanical hyperalgesia 180 minutes after intraplantar capsaicin, rat.
Format: in vivo
Experimental: (ii) In Vivo Data—Capsaicin Induced Secondary Mechanical Hyperalgesia Model:
Sprague Dawley rats were briefly restrained, and capsaicin was administered at 10 μg in 10 μL of vehicle by intraplantar injection into the center of the right hind paw. Secondary mechanical hyperalgesia (SMH) was measured at the heel away from the site of injection 180 minutes following capsaicin exposure. Compounds and gabapentin (positive control), were administered p.o. 60 minutes before testing (2 hours after capsaicin) or i.p. 30 minutes before testing (2.5 hours after capsaicin). SMH was measured using calibrated von Frey filaments (Stoelting, Woodale, Ill.). Following the 1 hour habituation in the testing room, rats were moved to individual plexiglass chambers that sit on top of a wire mesh to allow for access for stimulation of the plantar surface of the hind paws. Rats were allowed to acclimate to the new chambers for 15 minutes before the onset of testing. The paw withdrawal threshold was determined by increasing and decreasing stimulus intensity (force: g) and calculated using Dixon's up-down method (Chaplan, S. R.; Bach, F. W.; Pogrel, J. W.; Chung, J. M.; Yaksh, T. L.; Quantitative assessment of tactile allodynia in the rat paw. J. Neuroscience Methods 1994, 53(1), 55-63.). The filaments (maximum force of 15.0 g) were held in place for 8 seconds or until there was a withdrawal response from the mechanical stimulation.
O=C(N[C@H]1CC[C@H]2CN(Cc3cccc(C(F)(F)F)c3)C[C@H]21)C(C1CCCCC1)C1CCCCC1 [Example 54, 2,2-dicyclohexyl-N-{(3aS,4S,6aR)-2-[3-(trifluoromethyl)benzyl]octahydrocyclopenta[c]pyrrol-4-yl}acetamide] showed an inhibition in vivo at 30 mg/kg of 38%. Compound CC(C)C[C@H](NS(C)(=O)=O)C(=O)N[C@@H]1CC[C@H]2CN(Cc3cccc(C(F)(F)F)c3)C[C@H]21 [Example 170, N^2-(methylsulfonyl)-N^1-{(3aS,4R,6aR)-2-[3-(trifluoromethyl)benzyl]octahydrocyclopenta[c]pyrrol-4-yl}-L-leucinamide] has an inhibition in vivo at 30 mg/kg of 57%. CC(C)C[C@H](NS(=O)(=O)C1CC1)C(=O)N[C@@H]1CC[C@H]2CN(Cc3cccc(C(F)(F)F)c3)C[C@H]21 [Example 172, N^2-(cyclopropylsulfonyl)-N^1-{(3aS,4R,6aR)-2-[3-(trifluoromethyl)benzyl]octahydrocyclopenta[c]pyrrol-4-yl}-L-leucinamide] showed an inhibition in vivo at 30 mg/kg of 85%. CN[C@@H](CC(C)C)C(=O)N[C@@H]1CC[C@H]2CN(S(=O)(=O)c3ccc(C(F)(F)F)cc3)C[C@H]21 [Example 183, N^2-methyl-N^1-((3aS,4R,6aR)-2-{[4-(trifluoromethyl)phenyl]sulfonyl}octahydrocyclopenta[c]pyrrol-4-yl)-L-leucinamide] gave an inhibition in vivo at 30 mg/kg of 78%. For CCC[C@H](NC)C(=O)N[C@H]1CC[C@@H]2CN(S(=O)(=O)c3ccc(C(F)(F)F)cc3)C[C@@H]21 [Example 405, N^2-methyl-N^1-((3aR,4S,6aS)-2-{[4-(trifluoromethyl)phenyl]sulfonyl}octahydrocyclopenta[c]pyrrol-4-yl)-L-norvalinamide], the inhibition in vivo at 30 mg/kg was 32%. With CC(C)(C)C[C@H](NCC1CC1)C(=O)N[C@H]1CC[C@@H]2CN(c3cccc(C(F)(F)F)n3)C[C@@H]21 [Example 479, N^2-(cyclopropylmethyl)-4-methyl-N^1-{(3aR,4S,6aS)-2-[6-(trifluoromethyl)pyridin-2-yl]octahydrocyclopenta[c]pyrrol-4-yl}-L-leucinamide] the inhibition in vivo at 30 mg/kg was 40%.

Source: patent US8129417B2, “Substituted octahydrocyclopenta[C]pyrrol-4-amines as calcium channel blockers” (Abbott Laboratories, priority 2008, dated 2012)
